Data from patent US8314131B2, “Triazole fused heteroaryl compounds and methods of use thereof” (Amgen Inc., priority 2007, dated 2012).

Legend:
[1] = system: THP1 cells (LPS-induced TNF-α); assay: Lipopolysaccharide-activated THP1 cell TNF production assay; settings: Homo sapiens, THP-1, TNF-α secretion, read-out: THP-1 cell based assay IC50
Experimental: Lipopolysaccharide-Activated THP1 Cell TNF Production Assay
THP1 cells are resuspended in fresh THP1 media (RPMI 1640, 10% heat-inactivated FBS, 1XPGS, 1XNEAA, plus 30 μM βME) at a concentration of 1E6/mL. One hundred microliters of cells per well are plated in a polystyrene 96-well tissue culture. One microgram per mL of bacterial LPS is prepared in THP1 media and is transferred to the wells. Test compounds are dissolved in 100% DMSO and are serially diluted 3-fold in a polypropylene 96-well microtiter plate (drug plate). HI control and LO control wells contain only DMSO. One microliter of test compound from the drug plate followed by 10 μL of LPS are transferred to the cell plate. The treated cells are induced to synthesize and secrete TNF-α at 37° C. for 3 h. Forty microliters of conditioned media are transferred to a 96-well polypropylene plate containing 110 μL of ECL buffer (50 mM Tris-HCl pH 8.0, 100 mM NaCl, 0.05% Tween 20, 0.05% NaN3 and 1% FBS) supplemented with 0.44 nM MAB610 monoclonal Ab (R&D Systems), 0.34 nM ruthenylated AF210NA polyclonal Ab (R&D Systems) and 44 μg/mL sheep anti-mouse M280 Dynabeads (Dynal). After a 2 h incubation at room temperature with shaking, the reaction is read on the ECL M8 Instrument (IGEN Inc.). A low voltage is applied to the ruthenylated TNF-α immune complexes, which in the presence of TPA (the active component in Origlo), results in a cyclical redox reaction generating light at […]. The amount of secreted TNF-α in the presence of compound compared with that in the presence of DMSO vehicle alone (HI control) is calculated using the formula: % control (POC)=(cpd−average LO)/(average HI−average LO)*100. Data (consisting of POC and inhibitor concentration in μM) is fitted to a 4-parameter equation (y=A+((B−A)/(1+((x/C)^D))), where A is the minimum y (POC) value, B is the maximum y (POC), C is the x (cpd concentration) at the point of inflection and D is the slope factor) using a Levenburg-Marquardt non-linear regression algorithm.

p38α = p38α (Homo sapiens, UniProt Q16539); assay: p38 in-vitro HTRF enzyme assay; format: biochemical; settings: recombinant human enzyme, read-out: p38a IC50
p38α, sequence (Q16539 whole entry): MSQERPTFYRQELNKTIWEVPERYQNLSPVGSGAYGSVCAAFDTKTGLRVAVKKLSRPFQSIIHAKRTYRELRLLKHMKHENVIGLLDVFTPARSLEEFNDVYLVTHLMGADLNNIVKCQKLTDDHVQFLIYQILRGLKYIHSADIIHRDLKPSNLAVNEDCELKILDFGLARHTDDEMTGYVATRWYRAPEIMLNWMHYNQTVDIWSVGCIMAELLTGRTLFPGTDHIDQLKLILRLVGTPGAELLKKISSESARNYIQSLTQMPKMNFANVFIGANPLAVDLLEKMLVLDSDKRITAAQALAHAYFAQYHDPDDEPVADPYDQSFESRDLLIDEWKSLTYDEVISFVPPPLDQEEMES
Experimental: p38 In-Vitro HTRF Enzyme Assay
The compounds of the invention can be tested for their respective affinities for the p38 protein using a conventional p38 in-vitro enzyme activity assay. For example, a P38-alpha HTRF assay may be used to measure the protein's in-vitro phosphorylation activity, and the data analyzed using time resolved fluorimetry techniques (FRET). A p38 HTRF assay is as follows. The kinase reaction buffer for p38α, p38β, p38δ and p38γ HTRF assays consists of 50 mM Tris-pH 7.5, 5 mM MgCl2, 0.1 mg/mL BSA, 100 μM Na3VO4 and 0.5 mM DTT. The HTRF detection buffer contains 100 mM HEPES-pH 7.5, 100 mM NaCl, 0.1% BSA, 0.05% Tween-20, and 10 mM EDTA. Each compound was dissolved in 100% DMSO and serially diluted (3 fold, 10 point) in a polypropylene 96-well microtiter plate (drug plate). The final starting concentration of the compound in the p38α […]and p38β enzymatic assays was about 1 μM. The final starting concentration of each compound in the p38δ and p38γ enzymatic assays was about 10 μM. The p38α, p38β, p38δ and p38γ kinase reactions were carried out in a polypropylene 96-well black round bottom assay plate in total volume of 30 μL kinase reaction buffer. Appropriate concentration of purified and activated enzyme (recombinant human) was mixed with indicated concentration of ATP and 100 nM GST-ATF2-Avitag, in the presence or absence (HI control) of each compound. In the absence of enzyme, the background was measured as LO control. HI controls and LO controls contained only DMSO. The reaction was allowed to incubate for 1 hour at RT. […] After 60 minutes incubation at room temperature, the assay plate was read in a Discovery Plate Reader. The wells were excited with coherent 320 nm light and the ratio of delayed ([…] post excitation) emissions at […] (native europium fluorescence) and 665 nm (europium fluorescence transferred to allophycocyanin—an index of substrate phosphorylation) was determined (Park et al, 1999). The resulting data was analyzed by taking the proportion of substrate phosphorylated in the kinase reaction in the presence of each individual compound and comparing it with that phosphorylated in the presence of DMSO vehicle alone (HI control). The data was calculated using the formula: % control (POC)=(compound−average LO)/(average HI−average LO)*100. Data (consisting of POC and inhibitor concentration in μM) was fitted to a 4-parameter equation (y=A+((B−A)/(1+((x/C)^D))), where A is the minimum y (POC) value, B is the maximum y (POC), C is the x (compound concentration) at the point of inflection and D is the slope factor, using a Levenburg-Marquardt non-linear regression algorithm. The inhibition constant (Ki) of the inhibitor was estimated from the IC50 (compound concentration at the point of inflection C) using the Cheng-Prussof equation: Ki=IC50/(1+S/Km), where S is the ATP substrate concentration, and Km is the Michaelis constant for ATP as determined experimentally. All results were expressed as the mean±the standard error of the mean. Data acquisition and non-linear regression algorithms were performed using Activity Base v5.2 and XLfit software v4.1 respectively. Additional assay information may be obtained in Park Y W, Cummings R T, Wu L, et al. Homogeneous Proximity Tyrosine Kinase Assays: Scintillation Proximity Assay versus Homogeneous Time-Resolved Fluorescence. Analytical Biochemistry. 1999; 269: 94-104.

IL-1 = assay: LPS induced IL-1 cell assay (LPS-induced release of IL-1β from monocytes); format: cell-based; settings: Homo sapiens, Monocyte; LPS-activated monocytes
Experimental: Lipopolysaccharide-Activated Monocyte TNF Production Assay
Test compounds were evaluated in vitro for the ability to inhibit the production of TNF by monocytes activated with bacterial lipopolysaccharide (LPS). Fresh residual source leukocytes (a byproduct of plateletpheresis) were obtained from a local blood bank, and peripheral blood mononuclear cells (PBMCs) were isolated by density gradient centrifugation on Ficol-Paque Plus (Pharmacia). PBMCs were suspended at 2×10^6/mL in DMEM supplemented to contain 2% FCS, 10 mM, 0.3 mg/mL […], 100 U/mL penicillin G and […] streptomycin sulfate (complete media). Cells were plated into Falcon flat bottom, 96 well culture plates (200 μL/well) and cultured overnight at 37° C. and 6% CO2. Non-adherent cells were removed by washing with 200 μl/well of fresh medium. Wells containing adherent cells (˜70% monocytes) were replenished with 100 μL of fresh medium.
Preparation of Test Compound Stock Solutions
Test compounds were dissolved in […]. Compound stock solutions were prepared to an initial concentration of […]. Stocks were diluted initially to 20-200 μM in complete media. Nine two-fold serial dilutions of each compound were then prepared in complete medium.
Treatment of Cells with Test Compounds and Activation of TNF Production with Lipopolysaccharide
One hundred microliters of each test compound dilution were added to microtiter wells containing adherent monocytes and 100 μL complete medium. Monocytes were cultured with test compounds for 60 min at which time 25 μL of complete medium containing 30 ng/mL lipopolysaccharide from E. coli K532 were added to each well. Cells were cultured an additional 4 hrs. Culture supernatants were then removed and TNF presence in the supernatants was quantified using an ELISA.
Compounds of the invention can also be shown to inhibit LPS-induced release of IL-1β, IL-6 and/or IL-8 from monocytes by measuring concentrations of IL-1β, IL-6 and/or IL-8 by methods well known to those skilled in the art. […] Thus, the compounds of the invention may lower elevated levels of TNF-α, IL-1, IL-6, and IL-8 levels. Reducing elevated levels of these inflammatory cytokines to basal levels or below is favorable in controlling, slowing progression, and alleviating many disease states.

For `Cc1c(F)cc(C(=O)Nc2ccnn2C)cc1-c1ccc2c(c1)nnn2-c1ccccc1Cl` [Example 9, 3-(1-(2-chlorophenyl)-1H-benzotriazol-5-yl)-5-fluoro-4-methyl-N-(1-methyl-1H-pyrazol-5-yl)benzamide], the IC50 [1] was less than 25 nM, the IC50 (p38α) was less than 25 nM and the IC50 (IL-1) was 25 to 100 nM.
Molecule `Cc1ccc(C(=O)NC2CC2)cc1-c1ccc2c(c1)nnn2-c1ccccc1Cl` [Example 7, 3-(1-(2-chlorophenyl)-1H-benzotriazol-5-yl)-N-cyclopropyl-4-methylbenzamide] has an IC50 [1] of 25 to 100 nM, an IC50 (p38α) of less than 25 nM and an IC50 (IL-1) of 1000 to 5000 nM.
Molecule `Cc1ccc(C(=O)NC2CC2)cc1-c1ccc2c(c1)nnn2C(C)C` [Example 5, N-cyclopropyl-4-methyl-3-(1-(1-methylethyl)-1H-benzotriazol-5-yl)benzamide] has an IC50 [1] of 25 to 100 nM, an IC50 (p38α) of less than 25 nM and an IC50 (IL-1) of 1000 to 5000 nM.
Work on `Cc1c(F)cc(C(=O)NC2CC2)cc1-c1ccc2c(c1)nnn2C(C)(C)C` [Example 10, N-cyclopropyl-3-(1-(1,1-dimethylethyl)-1H-benzotriazol-5-yl)-5-fluoro-4-methylbenzamide] yielded an IC50 [1] of less than 25 nM, an IC50 (p38α) of less than 25 nM and an IC50 (IL-1) of 1000 to 5000 nM.
With `Cc1c(F)cc(C(=O)NC2CC2)cc1-c1ccc2c(c1)nnn2C1CCOCC1` [Example 11, N-cyclopropyl-3-fluoro-4-methyl-5-(1-(tetrahydro-2H-pyran-4-yl)-1H-benzotriazol-5-yl)benzamide] the IC50 [1] was 25 to 100 nM and the IC50 (IL-1) was 25 to 100 nM.
In the case of `Cc1ccc(C(=O)NC(C)C)cc1-c1ccc2c(c1)nnn2C(C)C` [Example 4, 4-methyl-N-(1-methylethyl)-3-(1-(1-methylethyl)-1H-1,2,3-benzotriazol-5-yl)benzamide], the IC50 [1] is reported as 250 to 1000 nM, the IC50 (p38α) is reported as less than 25 nM and the IC50 (IL-1) is reported as 1000 to 5000 nM.
With `Cc1c(F)cc(C(=O)NC2CC2)cc1-c1ccc2c(c1)nnn2-c1ccccc1Cl` [Example 6, 3-(1-(2-chlorophenyl)-1H-benzotriazol-5-yl)-N-cyclopropyl-5-fluoro-4-methylbenzamide] the IC50 [1] was less than 25 nM, the IC50 (p38α) was less than 25 nM and the IC50 (IL-1) was 100 to 250 nM.
`Cc1cc(F)ccc1-n1nnc2cc(-c3cc(C(=O)NC4CC4)cc(F)c3C)ccc21` [Example 8, N-cyclopropyl-3-fluoro-5-(1-(4-fluoro-2-methylphenyl)-1H-benzotriazol-5-yl)-4-methylbenzamide] showed an IC50 [1] of less than 25 nM, an IC50 (p38α) of less than 25 nM and an IC50 (IL-1) of 100 to 250 nM.
